Measurements: publication PMC12731536, “Sc(III) Complexes of Pyclen Derivative Ligands as Probes for Hypoxia: Synthesis, Chemical Characterization, ^44Sc‐Radiolabeling, and Preclinical Assessment” (Chemistry (Weinheim an Der Bergstrasse, Germany), 2025)
Like-named read-outs stand apart in the source and are kept apart here. Blank lines part the entries; values can stand above or below the compound they belong to.

Assays:
[1] = Stability constants of Sc(III) complexes, out‐of‐cell (batch) samples, 45Sc NMR; format: physicochemical; conditions: for AL/M (relative affinity): [Sc(III)]total = 10 nM, [L]tot = 100 nM
Method: The stability constant of the complex of PC2AM^nBu ligand formed with Sc(III) ion was studied using “out‐of‐cell” (batch) samples using ^45Sc NMR spectroscopy in strongly acidic media. Typical ^45Sc NMR spectra are shown in Figure 5 along with the corresponding ^1H NMR spectra of the aromatic region of the ligand.
Using the ^45Sc NMR signal intensities of free Sc^3+ measured in the equilibrated samples, the stability constant, K ScL, was calculated by fitting the areas with the PSEQUAD program ^[ [47] ^] (Figure 6). The best fitting was observed by considering the simplest model including only [Sc(PC2AM^nBu)]^+ species; that is, the formation of protonated [Sc(HPC2AM^nBu)]^2+ cannot be confirmed.
The stability constant of the [Sc(PCTA)] complex was determined in a similar way (Figure S13). The results were summarized in Table 2, including the data of [Sc(DO3AM‐NI)], determined in our previous study.^[ [33] ^]
Among the complexes shown in Table 2, the [Sc(DO3AM‐NI)] complex has the highest stability, but its stability constant is lower than the corresponding values of [Sc(DOTA)]^− (log K ScL = 30.79) and [Sc(DTPA)]^2− (log K ScL = 27.43). ^[ [49] ^] As evidenced for DO3AM‐mono(amide) the replacement of acetate side chains with amide groups results in a decrease in stability constant (and conditional stability); therefore, we can see an order of magnitude difference between the stabilities of [Sc(PCTA)] and [Sc(PC2AM^nBu)]^+. Although these K ScL constants and pSc values are somewhat lower than those of the complexes formed with traditional DOTA and DTPA ligands, these chelators remain remarkably good Sc(III)‐binding chelators. […] Therefore, following the proposal of M. Meyer and colleagues,^[ [48] ^] […] For the AL/M values, 1 corresponds to 90%, 2 corresponds to 99%, 3 corresponds to 99.9% etc. for complex formation. […] The AL/M data of the [Sc(PC2AM^nBu)]^+ complex only exceeds that of the [Sc(DO3AM‐NI)] complex in the pH < 3.0 range, which can be advantageous for labeling at low pH. Furthermore, based on the data in Table 2, it can be concluded that for these systems there is no discrepancy between the trends observed in the pSc and AL/M values.
The stability constant of [Sc(PC2AM^nBu)]^+ and [Sc(PCTA)] complexes was studied using “out‐of‐cell” (batch) samples using ^45Sc and ^1H NMR spectroscopy. The NMR spectra were obtained using a Bruker Avance II DRX spectrometer (9.4 T), equipped with Bruker Variable Temperature Unit, Bruker Cooling Unit, and a 5 mm BB inverse z gradient probe. For the investigation of [Sc(PC2AMnBu)]⁺, twelve samples (cSc(III) = 3.00 mM, cligand = 3.06 mM, in the pH range of –log[H^+] = 0.1–1.3; I = 1.0 M NaCl/HCl) were prepared in NMR tubes and kept at 25 °C for one week to reach equilibrium. During this period, ^1H and ^45Sc NMR measurements were performed daily to monitor changes in signal intensities. No significant changes were detected after one week, even in the most acidic sample. The intensities of the free Sc(III) signals were normalized using a standard 50 mM ScCl3 solution containing 1 M HCl (20% D2O). For the determination of the stability of the [Sc(PCTA)] complex, eleven “batch” samples (cSc(III) = 4.00 mM, cligand = 4.08 mM), in the pH range of –log[H^+] = 0.1–1.25, were prepared. The evaluation of the measured data was performed using the PSEQUAD program.^[ [47] ^] Samples were prepared in H2O, with 10% D2O added for deuterium lock. The actual resonance frequencies for ^1H, ^13C, ^19F, and ^45Sc are indicated in the text and figure captions. The chemical shifts of ^1H and ^13C were calibrated using an external TMS standard, while ^19F was referenced to CCl3F. The ^45Sc NMR shift was calibrated to 0 ppm using a 5 mM solution of ScCl3 in 0.1 M HCl.

[2] = I = 0.15 M NaCl, T = 25 °C; cited from earlier work
[3] = cited from earlier work
[4] = pH‐potentiometric determination of ligand protonation constants; format: physicochemical; conditions: T = 25 °C
Method: The equilibrium study of the PC2AM^nBu ligand has been started by determining the protonation constants in 0.15 M and 1.00 M NaCl ionic strength. (As the stability of the Sc(III) complex was determined in 1.00 M ionic strength, we had to perform the pH‐potentiometric titration of ligands using 1.00 M ionic strengths also.) The results of pH‐potentiometric measurement are shown in Table 1, where the corresponding data for 3,9‐PC2A,^[ [42] ^] PCTA ^[ [46] ^] and PC2AM‐NI ligands determined under identical conditions are also presented. Knowledge of the protonation constants defined by Eqn. 1 and 2 are essential for the calculation of the stability constants of the Sc(III) complexes:
(1) PC2AM^nBu^2−+nH^+⇌Hn(PC2AM^nBu)^−2+n (2) βn=HnPC2AM^nBu^−2+n/PC2AM^nBu^2−H^+^n
The protonation constants of the ligands, as well as the concentrations of the ligand stock solutions, were determined by pH‐potentiometric method using a Metrohm 785 DMP Titrino automatic titrator using a Metrohm 6.00234.100 combined glass electrode. The titrations were carried out in the pH range 1.75–11.80 and the pH electrode was calibrated by a two‐point calibration routine with the use of 0.05 M KH‐phthalate (pH = 4.005) and 0.01 M borax (pH = 9.177 buffers. The samples were stirred at 25 °C (±0.1 °C) and N2 gas bubbled into the system to ensure inert conditions and to eliminate the effect of the presence of CO2. For the calculation of [H^+] from the measured pH values, the method proposed by Irving et al. was applied.^[ [61] ^] For this, a 0.01 M HCl solution was titrated with the standardized NaOH solution in the presence of 0.15 M NaCl ionic strength at 25 °C. The differences between the measured (pHread) and calculated pH (‐log[H^+]) values were used to obtain the equilibrium H^+ concentration from the pHmeas values during the titrations. By fitting the resulting titration curves (pH – V (NaOH) data pairs) with the PSEQUAD program, the protonation constants of the ligands were determined.^[ [47] ^] The titration of the [Sc(PC2AM^nBu)]^+ with NaOH was performed with the same method by applying very similar conditions.

[5] = Acid‐assisted dissociation (decomplexation) of Sc(III) complexes, UV spectroscopy; format: physicochemical; conditions: dissociation of the Sc(III) complex, 1.6‐2.6 M HClO4, 25 °C, I = 2.6 M
Source text: The inertness of metal complexes is a basic requirement in all relevant modalities of medical imaging. Complexes of macrocyclic ligands are often more inert compared to open‐chain analogs. In order to assess the behavior of our complexes, the decomplexation of [Sc(PC2AM^nBu)]^+ and [Sc(PCTA)] was studied in a strongly acidic medium (cH + = 1.6 ‐ 2.6 M HClO4) by using UV spectroscopy. […] The primary Abs. versus time curves have been fitted by monoexponential function returning kobs (s^−1) values (Figures S22 and S23).
The plots of the rate constants as a function of acid concentration yielded linear relationships for both complexes (k obs = k 0 + k 1[H^+]). The slopes of these lines correspond to the rate coefficients characteristic for acid‐assisted dissociation (k 1), whereas the intercepts characterize the acid‐independent part, often referred to as a rate of spontaneous dissociation. […] The rate coefficients obtained during the fitting are summarized in Table 3, along with the half‐lives calculated from the rate coefficients by using 1 M acid concentration (t ½ = ln 2 / k obs).
Kinetic studies of the dissociation of the [Sc(PC2AMnBu)]^+ and [Sc(PCTA)] complexes were carried out by examining the dependence of the dissociation rates on acid concentration. Spectrophotometric measurements were conducted on a JASCO V‐760 spectrophotometer at λ = 280 nm. The concentration of the complex in the sample was 0.30 mM, and HClO4 was applied in concentrations ranging from 1.6 to 2.6 M. The evaluation of the measured data was performed with Scientist software ^[ [62] ^] to determine the k 0 (spontaneous) and k 1 (acid‐assisted) reaction rates.

[6] = Time course of Sc(III) complex formation, 45Sc NMR; format: physicochemical
Method: The time course of complex formation of PC2AM^nBu and PCTA ligands with Sc(III) ion was investigated by ^45Sc‐NMR under acidic conditions (cSc = cligand = 10 mM and 9.5 mM, respectively, ‐log[H^+] = 1.28). The decrease of the narrow signal of the free Sc(III) ion was monitored as a function of time. […] The kinetic measurements of formation could be seen in Figures S18 and S19. The complexation for the [Sc(PCTA)] chelate at pH = 1.28 and 25 °C took about 300 minutes to reach the equilibrium, whereas for the [Sc(PC2AM^nBu)]^+ complex it took a bit longer time under these conditions. (In order to confirm that the samples reached the equilibrium, we have repeated the ^45Sc NMR study for both samples after a few days when the signal of the free Sc(III) was absent, and only the signals of the complexes were detected.) The detailed study of formation kinetics was not our aim in this project. One can expect that the reaction follows the well‐known mechanisms of M(III) ‐ macrocyclic APC systems ^[ [54] ^]: formation of a protonated intermediate in fast pre‐equilibrium followed by a slow, base‐catalyzed deprotonation/structural rearrangement as a rate‐determining step. The intermediate is named also as “out‐of‐cage complex.”^[ [55] ^] Our experimental curves are likely in accordance with this mechanism. Fitting the measured data for the free Sc(III) signals by a monoexponential function gives the rate constant k obs = (1.04 ± 0 .05) x 10^−4 s^−1 for the [Sc(PC2AM^nBu)]^+ and k obs = (2.51 ± 0.12) x 10^−4 s^−1 for the [Sc(PCTA)] complex. […] The relatively fast complex formation at the given acidic condition is very encouraging for the Sc(III) labeling experiments.
^45Sc NMR measurements (97 MHz) were performed on a Bruker DRX 400 (9.4 T) spectrometer equipped with a Bruker VT‐1000 thermocontroller and a BB inverse z‐gradient probe (5 mm). The kinetic experiments were performed at 25 °C in aqueous solution, using D2O (10% v/v) as a lock solvent. Typical parameters for 45Sc NMR measurements were used: TD = 32k, p1 = 15.6 µs (90°), d 1 = 0.1 s. The formation reactions of the [Sc(PC2AM^nBu)]^+ and [Sc(PCTA)] complexes were monitored by ^45Sc NMR spectroscopy in two sample types: one containing 10.0 mM PC2AM^nBu and ScCl3 / 9.5 mM […] and ScCl3. In both cases, the total acid concentration corresponded to a pH of 1.28. Obtained monoexponential curves (signal area of free Sc(III) vs. time) were fitted using Scientist software ^[ [62] ^] to determine the formation rate.

AL/M (relative affinity) ([1]; pH = 7.4, I = 0.15 M NaCl, calculated from constants of ref 33): 6.57
Structure (SMILES): O=C(O)CN1CCN(CC(=O)O)CCN(CC(=O)NCCn2ccnc2[N+](=O)[O-])CCN(CC(=O)O)CC1 [DO3AM‐NI]
log β 2 ^H [2]: 17.38
pSc ([3]; pSc = ‐log[Sc(III)]free, cSc(III) = 1x10^−8 M, clig = 1x10^−7 M, pH = 7.4, I = 0.15 M NaCl): 20.74
log K ScL ([3]; stability constant of the Sc(III) complex, I = 0.15 M NaCl, T = 25 °C): 22.36

log K 1 ^H ([4]; I = 0.15 M NaCl): 8.79(1)
log K 2 ^H ([4]; I = 0.15 M NaCl): 7.59(1)
log K 3 ^H ([4]; I = 0.15 M NaCl): 2.31(2)
log K 4 ^H ([4]; I = 0.15 M NaCl): 1.28(3)
log β 2 ^H ([4]; I = 0.15 M NaCl): 16.38
log K 1 ^H ([4]; I = 1.00 M NaCl): 8.13(2)
log K 2 ^H ([4]; I = 1.00 M NaCl): 7.59(1)
log K 3 ^H ([4]; I = 1.00 M NaCl): 2.52(1)
log β 2 ^H ([4]; I = 1.00 M NaCl): 15.72
AL/M (relative affinity) ([1]; pH = 7.4, I = 1.00 M NaCl): 5.17
pSc ([1]; pSc = ‐log[Sc(III)]free, cSc(III) = 1x10^−8 M, clig = 1x10^−7 M, pH = 7.4, I = 1.00 M NaCl): 19.32
log K ScL ([1]; stability constant of the Sc(III) complex, I = 1.00 M NaCl, T = 25 °C): 19.53(4)
Structure (SMILES): CCCCNC(=O)CN1CCN(CC(=O)O)Cc2cccc(n2)CN(CC(=O)O)CC1 [PC2AM^nBu]
k 0 (spontaneous dissociation) [5]: 0 s⁻¹
k 1 (acid‐assisted dissociation) [5]: (3.64 ± 0.08) x 10^−7 M^−1s^−1

Structure (SMILES): O=C([O-])CN1CCN(CC(=O)[O-])CCN(CC(=O)[O-])CCN(CC(=O)[O-])CC1.[Sc+3] [[Sc(DOTA)]^−]
log K ScL ([3]; literature stability constant): 30.79

Structure (SMILES): O=C([O-])CN(CCN(CC(=O)[O-])CC(=O)[O-])CCN(CC(=O)[O-])CC(=O)[O-].[Sc+3] [[Sc(DTPA)]^2−]
log K ScL ([3]; literature stability constant): 27.43

Structure (SMILES): O=C([O-])CN1CCN(CC(=O)[O-])Cc2cccc(n2)CN(CC(=O)[O-])CC1.[Sc+3] [[Sc(PCTA)]]
time of complexation to reach the equilibrium ([6]; pH = 1.28, 25 °C): about 300 minutes
half‐life of the complex formation reaction (t 1/2 = ln2 / k obs) ([6]; ‐log[H^+] = 1.28, 25 °C): 46 min
k obs of complex formation ([6]; ‐log[H^+] = 1.28, 25 °C, cSc = cligand = 10 mM (PC2AM^nBu) or 9.5 mM (PCTA), monoexponential fit of free Sc(III) signal): (2.51 ± 0.12) x 10^−4 s^−1
